Experimental data: patent publication US20240124483A1, “Methods for the Treatment of Fibrotic Disease” (SHY Therapeutics, LLC, priority 2021, published 2024)
Read-outs that look alike come from different tables or passages of the source.

What was measured:
AKT phosphorylation = assay: Western AKT Cell-Based Phosphorylation Assay; conditions: Homo sapiens, PANC-1, 6 hours, EGF 1.5 ng/ml, read-out: % inh of AKT phosphorylation in PANC-1
Method in brief: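 PANC-1 cells, serum-starved overnight in 0.5% FBS, were treated with compound at 10 μM (0.3% DMSO) for 6 h at 37 °C and then stimulated with 1.5 ng/ml EGF for 15 min. Lysates (15–50 μg) were immunoblotted for phospho-Akt Ser473, with ECL detection.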

ERK1/2 phosphorylation = assay: Western ERK1/2 Cell-Based Phosphorylation Assay; conditions: Homo sapiens, PANC-1, 6 hours, EGF 1.5 ng/ml, read-out: % inh of ERK1/2 phosphorylation in PANC-1
Method in brief: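 Panc-1 cells starved overnight in 0.5% FBS, then treated with compound (10 μM or serial dilutions for IC50, 0.3% DMSO) for 6 h at 37 °C. Cells stimulated with 1.5 ng/ml EGF for 15 min, lysed. Phospho-ERK1/2 (Thr202/Tyr204) measured by western blot on 15-50 μg protein.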

KRas Q61H mutant = KRas Q61H mutant (Homo sapiens (Human), UniProt P01116, Q61H); assay: Ras GTP Binding Domain Inhibition Assay, KRas Q61H mutant; conditions: 20 μM
Sequence of KRas Q61H mutant (P01116 other isoform, or with tags, fused parts or gaps Q61H): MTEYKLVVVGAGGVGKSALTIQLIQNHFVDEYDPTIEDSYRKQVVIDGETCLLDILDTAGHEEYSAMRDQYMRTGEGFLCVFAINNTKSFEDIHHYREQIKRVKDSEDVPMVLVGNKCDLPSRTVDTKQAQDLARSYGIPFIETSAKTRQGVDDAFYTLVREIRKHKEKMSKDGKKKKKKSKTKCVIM
Method in brief: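 Steps: coat His-tagged protein (10-30 μg/mL) on nickel wells overnight at 4° C; add test compound, 20 μM final or serial dilution, 1% DMSO, 3 h RT; optional Sos final hour; add 100 nM Cy3-GTP or Cy5-GTP, 45 min; wash and read fluorescence.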

[1] = + SOS, read-out: KRas Q61H mutant + SOS: % inh.
[2] = without SOS, read-out: KRas Q61H mutant: % inh.

SMILES | inhibition at 20 µM (KRas Q61H mutant; [1]) | inhibition at 20 µM (KRas Q61H mutant; [2]) | inhibition at 10 µM (AKT phosphorylation) | inhibition at 10 µM (ERK1/2 phosphorylation)
COCCCOc1nc(-c2nccn2C)nc2sc(-c3ccn(C(C)C)n3)c(-c3ccccc3)c12 [Compound 37, 6-(1-Isopropyl-1H-pyrazol-3-yl)-4-(3-methoxypropoxy)-2-(1-methyl-1H-imidazol-2-yl)-5-phenylthieno[2,3-d]pyrimidine] | 0% | 0% | 0% | 0%
COc1nccc(-c2sc3nc(-c4nccn4C)nc(N[C@H]4C[C@H](OC)C4)c3c2-c2ccccc2)c1F [Compound 45, 6-(3-Fluoro-2-methoxypyridin-4-yl)-N-((1r,3r)-3-methoxycyclobutyl)-2-(1-methyl-1H-imidazol-2-yl)-5-phenylthieno[2,3-d]pyrimidin-4-amine] | 76 to 100% | 46 to 75% | 76 to 100% | 76 to 100%
COc1cc(-c2sc3nc(-c4nccn4C)nc(N[C@H]4C[C@H](OC)C4)c3c2-c2ccccc2)ccn1 [Compound 46, N-((1r,3r)-3-Methoxycyclobutyl)-6-(2-methoxypyridin-4-yl)-2-(1-methyl-1H-imidazol-2-yl)-5-phenylthieno[2,3-d]pyrimidin-4-amine] | 76 to 100% | 76 to 100% | 1 to 25% | 76 to 100%

The next lines start with results.

inhibition at 20 µM (KRas Q61H mutant; [1]) | inhibition at 20 µM (KRas Q61H mutant; [2]) | SMILES | inhibition at 10 µM (AKT phosphorylation) | inhibition at 10 µM (ERK1/2 phosphorylation)
76 to 100% | 76 to 100% | COc1cccc(-c2sc3nc(-c4nccn4C)nc(N[C@H]4C[C@H](OC)C4)c3c2-c2ccccc2)c1F [Compound 40, 6-(2-Fluoro-3-methoxyphenyl)-N-((1r,3r)-3-methoxycyclobutyl)-2-(1-methyl-1H-imidazol-2-yl)-5-phenylthieno[2,3-d]pyrimidin-4-amine] | 76 to 100% | 76 to 100%
76 to 100% | 46 to 75% | COc1cccc(-c2sc3nc(-c4nccn4C)nc(N[C@H]4C[C@H](OC)C4)c3c2C)c1F [Compound 42, 6-(2-Fluoro-3-methoxyphenyl)-N-((1r,3r)-3-methoxycyclobutyl)-5-methyl-2-(1-methyl-1H-imidazol-2-yl)thieno[2,3-d]pyrimidin-4-amine] | 26 to 45% | 46 to 75%
